These results are taken from patent US20240246932A1 (Merck Sharp & Dohme LLC, priority 2021, published 2024).

The structures appear in SMILES notation.

In general, IC50 refers to the concentration that inhibits the measured activity by half.

In this assay the target is human NaV 1.8 channels stably expressed in HEK 293 cells (Homo sapiens (Human), UniProt Q9Y5Y9). Kind of assay: Nav1.8 Qube automated patch-clamp assay. It is filed as cell-based. Particulars: human NaV1.8 in HEK 293 cells, whole-cell voltage clamp, room temperature; read-out: IC50 values (nM) for Examples in the Nav1.8 Qube Assay. The gist of the method: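 Whole-cell voltage clamp at room temperature on HEK293 cells; from −90 mV, a 10 s 1 Hz train of 20 ms pulses to 10 mV (repolarising to −67 mV) was applied. Peak currents at pulses 1 and 10 gave resting- and inactivated-state inhibition; IC50 fitted by Hill equation. Internal CsF/CsCl buffer.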
human NaV 1.8 channels stably expressed in HEK 293 cells, sequence (Q9Y5Y9 whole entry): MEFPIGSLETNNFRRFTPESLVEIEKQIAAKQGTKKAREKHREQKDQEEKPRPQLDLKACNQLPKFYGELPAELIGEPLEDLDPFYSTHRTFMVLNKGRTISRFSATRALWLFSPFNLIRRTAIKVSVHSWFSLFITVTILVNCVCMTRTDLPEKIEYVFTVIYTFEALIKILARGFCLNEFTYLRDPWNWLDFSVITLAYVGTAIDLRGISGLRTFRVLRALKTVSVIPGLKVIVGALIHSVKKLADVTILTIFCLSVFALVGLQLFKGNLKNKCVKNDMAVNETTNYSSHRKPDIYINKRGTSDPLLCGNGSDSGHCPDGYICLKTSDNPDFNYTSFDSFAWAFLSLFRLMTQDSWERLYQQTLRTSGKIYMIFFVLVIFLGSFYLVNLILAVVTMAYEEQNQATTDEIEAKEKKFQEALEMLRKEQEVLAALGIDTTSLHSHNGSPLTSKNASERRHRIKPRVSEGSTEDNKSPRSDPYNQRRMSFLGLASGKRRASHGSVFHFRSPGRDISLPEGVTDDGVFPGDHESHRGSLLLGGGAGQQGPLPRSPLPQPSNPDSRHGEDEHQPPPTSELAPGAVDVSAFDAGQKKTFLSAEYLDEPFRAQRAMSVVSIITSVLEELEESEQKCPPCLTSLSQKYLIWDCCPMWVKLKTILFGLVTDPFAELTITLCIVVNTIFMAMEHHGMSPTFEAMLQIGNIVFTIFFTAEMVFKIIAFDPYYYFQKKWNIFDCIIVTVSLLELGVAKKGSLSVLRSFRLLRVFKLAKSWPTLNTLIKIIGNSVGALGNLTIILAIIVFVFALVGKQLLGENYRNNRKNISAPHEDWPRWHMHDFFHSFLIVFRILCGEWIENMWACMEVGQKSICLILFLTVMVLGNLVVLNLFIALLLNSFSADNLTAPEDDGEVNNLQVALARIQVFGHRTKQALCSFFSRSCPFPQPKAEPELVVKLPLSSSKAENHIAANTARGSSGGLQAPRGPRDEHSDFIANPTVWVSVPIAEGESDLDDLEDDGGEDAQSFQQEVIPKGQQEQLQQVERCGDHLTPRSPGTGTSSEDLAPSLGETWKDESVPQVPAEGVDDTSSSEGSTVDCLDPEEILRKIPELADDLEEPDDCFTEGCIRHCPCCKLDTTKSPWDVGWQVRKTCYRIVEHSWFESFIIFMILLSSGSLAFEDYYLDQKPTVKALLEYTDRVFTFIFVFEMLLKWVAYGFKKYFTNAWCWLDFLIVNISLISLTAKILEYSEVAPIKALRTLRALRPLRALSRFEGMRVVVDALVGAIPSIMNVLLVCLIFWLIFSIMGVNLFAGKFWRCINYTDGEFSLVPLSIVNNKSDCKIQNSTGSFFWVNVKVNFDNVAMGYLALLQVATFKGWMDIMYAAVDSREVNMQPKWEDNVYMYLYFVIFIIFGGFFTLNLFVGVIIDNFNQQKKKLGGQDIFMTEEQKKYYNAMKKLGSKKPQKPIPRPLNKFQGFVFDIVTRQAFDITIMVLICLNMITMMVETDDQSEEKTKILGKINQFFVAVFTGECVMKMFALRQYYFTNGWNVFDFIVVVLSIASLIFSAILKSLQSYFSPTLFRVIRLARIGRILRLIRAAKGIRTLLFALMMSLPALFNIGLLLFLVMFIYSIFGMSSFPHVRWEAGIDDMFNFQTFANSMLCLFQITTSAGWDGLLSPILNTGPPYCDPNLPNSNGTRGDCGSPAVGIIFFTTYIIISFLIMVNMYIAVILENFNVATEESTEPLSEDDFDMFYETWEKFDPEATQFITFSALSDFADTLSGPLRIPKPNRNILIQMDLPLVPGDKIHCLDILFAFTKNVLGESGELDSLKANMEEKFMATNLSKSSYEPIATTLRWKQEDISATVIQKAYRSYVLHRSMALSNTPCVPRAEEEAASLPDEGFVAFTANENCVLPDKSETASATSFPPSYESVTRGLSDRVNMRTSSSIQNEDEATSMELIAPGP
For orientation: Patch clamp records ionic current or voltage across a cell membrane.
Take `C[C@@H]1C(=O)NCCN1C(=O)NC(c1ccc(C(F)(F)F)nc1)c1ccc(Cl)c(C(F)(F)F)n1` (single isomer, unassigned) [Example 81B, (2R)-N-((S or R)-(5-chloro-6-(trifluoromethyl)pyridin-2-yl)(6-(trifluoro-methyl)pyridin-3-yl)methyl)-2-methyl-3-oxopiperazine-1-carboxamide]: the IC50 was 110 nM. Turning to `C[C@@H]1C(=O)NCCN1C(=O)NC(c1cnc(C(F)(F)F)c(Cl)c1)c1ccc(F)c(C(F)(F)F)n1` (single isomer, unassigned) [Example 82A], the IC50 worked out at 17.4 nM. The figure for `C[C@@H]1C(=O)NCCN1C(=O)NC(c1cnc(C(F)(F)F)c(Cl)c1)c1ccc(F)c(C(F)(F)F)n1` (single isomer, unassigned) [Example 82B] is 3.76 nM; for `C[C@@H]1C(=O)NCCN1C(=O)NC(c1cnc(C(F)(F)F)c(Cl)c1)c1ccc(Cl)c(C(F)(F)F)n1` (single isomer, unassigned) [Example 83A] it is 6.51 nM. As to `C[C@@H]1C(=O)NCCN1C(=O)NC(c1cnc(C(F)(F)F)c(Cl)c1)c1ccc(Cl)c(C(F)(F)F)n1` (single isomer, unassigned) [Example 83B], the concentration for half-maximal inhibition (IC50) was found to be 3.14 nM. In the case of `C[C@@H]1C(=O)NCCN1C(=O)NC(c1cnc(C(F)(F)F)c(Cl)c1)c1csc(C(F)(F)F)n1` (single isomer, unassigned) [Example 84A, (2R)-N-((R or S)-(5-chloro-6-(trifluoromethyl)pyridin-3-yl)(2-(trifluoromethyl)thiazol-4-yl)methyl)-2-methyl-3-oxopiperazine-1-carboxamide] it was 16.2 nM; in that of `C[C@@H]1C(=O)NCCN1C(=O)NC(c1cnc(C(F)(F)F)c(Cl)c1)c1csc(C(F)(F)F)n1` (single isomer, unassigned) [Example 84B, (2R)-N-((S or R)-(5-chloro-6-(trifluoromethyl)pyridin-3-yl)(2-(trifluoromethyl)thiazol-4-yl)methyl)-2-methyl-3-oxopiperazine-1-carboxamide], 202 nM; in that of `C[C@@H]1C(=O)NCCN1C(=O)NC(c1ccc(F)c(Cl)c1)c1cc(C(F)(F)F)n[nH]1` (single isomer, unassigned) [Example 85A], 57.8 nM. As to `C[C@@H]1C(=O)NCCN1C(=O)NC(c1ccc(F)c(Cl)c1)c1cc(C(F)(F)F)n[nH]1` (single isomer, unassigned) [Example 85B], the IC50 stood at 5.47 nM. In the case of `C[C@@H]1C(=O)NCCN1C(=O)NC(c1ccc(F)c(Cl)c1)c1cc(C(F)(F)F)nn1C` (single isomer, unassigned) [Example 86A, (2R)-N-((R or S)-(3-chloro-4-fluoro-phenyl)(1-methyl-3-(trifluoro-methyl)-1H-pyrazol-5-yl)methyl)-2-methyl-3-oxopiperazine-1-carboxamide], the IC50 worked out at 3.59 nM. In the case of `C[C@@H]1C(=O)NCCN1C(=O)NC(c1ccc(F)c(Cl)c1)c1cc(C(F)(F)F)nn1C` (single isomer, unassigned) [Example 86B, (2R)-N-((S or R)-(3-chloro-4-fluoro-phenyl)(1-methyl-3-(trifluoro-methyl)-1H-pyrazol-5-yl)methyl)-2-methyl-3-oxo-piperazine-1-carboxamide] it was 154 nM.

Turning to `C[C@@H]1C(=O)NCCN1C(=O)NC(c1ccc(OC(F)(F)F)cc1)c1cc(C(F)(F)F)n[nH]1` (single isomer, unassigned) [Example 87A, (2R)-2-methyl-3-oxo-N-((R or S)-(4-(trifluoromethoxy)phenyl)(3-(trifluoromethyl)-1H-pyrazol-5-yl)methyl)piperazine-1-carboxamide], the IC50 is 124 nM. The figure for `C[C@@H]1C(=O)NCCN1C(=O)NC(c1ccc(OC(F)(F)F)cc1)c1cc(C(F)(F)F)n[nH]1` (single isomer, unassigned) [Example 87B, (2R)-2-methyl-3-oxo-N-((S or R)-(4-(trifluoromethoxy)phenyl)(3-(trifluoromethyl)-1H-pyrazol-5-yl)methyl)piperazine-1-carboxamide] is 10.8 nM.
